According to patent publication US8809364B2, “Polycyclic aryl substituted triazoles and polycyclic heteroaryl substituted triazoles useful as axl inhibitors” (priority 2007, dated 2014):

Each compound was assayed against T1, Axl (Homo sapiens, UniProt P30530) (assay: Phospho-Akt In-Cell Western Assay (inhibition of Axl activity)). Conditions: Hela cells, Axl antibody cross-linking stimulation, phospho-Akt chemiluminescence normalized to cell number; compound of formula (Ib), Table 2.
T1 construct: endogenous in cells; host or cells: HeLa cells
T1 sequence (P30530 26-894): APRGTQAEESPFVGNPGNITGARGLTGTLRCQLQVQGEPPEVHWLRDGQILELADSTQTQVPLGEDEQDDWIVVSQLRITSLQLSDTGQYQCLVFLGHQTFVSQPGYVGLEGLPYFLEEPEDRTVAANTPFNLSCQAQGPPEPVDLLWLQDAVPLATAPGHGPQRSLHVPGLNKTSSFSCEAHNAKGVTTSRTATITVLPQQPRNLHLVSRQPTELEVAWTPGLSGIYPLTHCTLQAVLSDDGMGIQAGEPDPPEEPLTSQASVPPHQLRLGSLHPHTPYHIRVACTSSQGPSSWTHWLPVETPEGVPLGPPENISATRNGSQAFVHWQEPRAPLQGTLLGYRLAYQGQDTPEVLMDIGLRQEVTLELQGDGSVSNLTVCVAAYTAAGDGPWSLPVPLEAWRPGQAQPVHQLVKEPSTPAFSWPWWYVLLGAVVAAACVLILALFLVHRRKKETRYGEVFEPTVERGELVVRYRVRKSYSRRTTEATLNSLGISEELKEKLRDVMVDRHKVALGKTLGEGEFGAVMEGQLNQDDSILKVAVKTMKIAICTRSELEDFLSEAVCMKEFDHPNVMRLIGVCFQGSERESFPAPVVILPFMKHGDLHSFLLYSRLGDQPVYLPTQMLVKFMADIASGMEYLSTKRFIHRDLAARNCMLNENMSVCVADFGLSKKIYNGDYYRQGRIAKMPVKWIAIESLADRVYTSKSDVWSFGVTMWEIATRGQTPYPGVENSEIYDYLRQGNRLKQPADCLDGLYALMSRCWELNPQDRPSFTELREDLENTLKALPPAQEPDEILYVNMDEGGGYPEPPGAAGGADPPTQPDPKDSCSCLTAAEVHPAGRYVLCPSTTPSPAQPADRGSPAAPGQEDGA
Type: cell-based
Description: The compounds of the invention were tested in the following assay for their ability to inhibit Axl activity.
Phospho-Akt In-Cell Western Assay
• Cell culture plate: 96 well assay plate (Corning 3610), white, clear bottom, tissue-culture treated. • Cells: Hela cells. • Starvation medium: For Axl stimulation: 0.5% FCS (fetal calf serum) in DMEM, plus Axl/Fc (extracellular domain of AXL fused to immunoglobulin Fc region) (R&D, 154-AL) 500 ng/mL. • For EGF (epidermal growth factor) stimulation: 0.5% FCS in DMEM (Dulbecco's modified Eagles medium). • Poly-L-Lysine 0.01% solution (the working solution): 10 μg/ml, dilute In PBS (phosphate buffered saline). • Axl antibody cross-linking: • 1st: Mouse anti-Axl (R&D, MAB154). • 2nd: Biotin-SP-conjugated AffiniPure goat anti-mouse IgG (H+L) (Jackson ImmunoResearch #115-065-003). • Fixing buffer: 4% formaldehyde in PBS. • Wash buffer: 0.1% TritonX-100 in PBS. • Quenching buffer: 3% H2O2, 0.1% Azide in wash buffer, Azide and hydrogen peroxide (H2O2) are added fresh. • Blocking buffer: 5% BSA in TBST (tris buffered saline plus 0.1% Tween 20). • Primary antibody: Rabbit anti-human Phospho-Akt antibody (Cell Signaling 9271): 1×250 diluted in blocking buffer. • Secondary antibody: HRP (horse radish peroxidase)-conjugated Goat anti-Rabbit secondary, stock solution: Jackson ImmunoResearch (Goat anti-Rabbit HRP, #111-035-144) 1:1 diluted in glycerol, store at −20° C. The working solution: 1×2000 dilution of stock in blocking buffer. • Chemiluminescent working solution (Pierce, 37030): SuperSignal ELISA (enzyme linked immunosorbant assay) Pico Chemiluminescent substrate. • Crystal Violet solution: Stock: 2.5% Crystal violet in methanol, filtered and kept at ambient temperature. The working solution: dilute the stock 1:20 with PBS immediately before use. • 10% SDS: working solution: 5% SDS (sodium dodecylsulfate), diluted in PBS Methods: Day 1:
A 96 well TC (tissue culture treated) plate was coated with 10 μg/mL poly-L-Lysine at 37° C. for 30 min, washed twice with PBS, and air-dried for 5 minutes before cells were added. Hela cells were seeded at 10,000 cells/well and the cells were starved in 100 μL starvation medium containing Axl/Fc for 24 hrs.
The cells were pre-treated with test compounds by adding 100 μL of 2× test compound to the starvation medium on the cells. The cells were incubated at 37° C. for 1 hr before stimulation.
The cells were stimulated by Axl-antibody cross-linking as follows: A 5×1^St/2nd Axl antibody mixture was made (37.5 μg/mL 1st/100 μg/mL 2nd) in starvation medium and nutated at 4° C. with thorough mixing for 1-2 hours for clustering. The resulting mix was warmed to 37° C. 50 μL of 5×Axl 1st/2nd of antibody cluster was added to the cells and the cells were incubated at 37° C. for 5 min.
After 5 minutes stimulation, the plate was flicked to remove medium and the plate was tapped onto paper towels. Formaldehyde (4.0% in PBS, 100 μL) was added to fix the cells and the cells were incubated at ambient temperature for 20 min without shaking.
The cells were washed with a plate washer buffer to remove the formaldehyde solution. The plate was flicked to removed excess wash buffer and tapped onto paper towels. Quenching buffer (100 μL) was added to each well and the cells were incubated at ambient temperature for 20 minutes without shaking.
The cells were washed with a plate washer buffer to remove the quenching buffer. Blocking buffer (100 μL) was added and the cells were incubated at ambient temperature for at least an hour with gentle shaking.
The cells were washed with a plate washer buffer and diluted primary antibody (50 μL) was added to each well (blocking buffer was added to the negative control wells instead). The plates were incubated overnight at 4° C. with gentle shaking.
The wash buffer was removed, diluted secondary antibody (100 μL) was added, and the cells were incubated at ambient temperature for 1 hour with gentle shaking. […]

| Structure (SMILES) | IC50 |
| --- | --- |
| Nc1nc(Nc2ccc3c(c2)C(=O)NCCCC3)n(-c2cc3c(nn2)-c2ccccc2CCC3)n1 [Compound 15, 1-(6,7-dihydro-5H-benzo[6,7]cyclohepta[1,2-c]pyridazin-3-yl)-N^5-(1(2H)-oxo-3,4,5,6-tetrahydrobenzo[c]azocin-9-yl)-1H-1,2,4-triazole-3,5-diamine] | 1000 to 10000 nM |

Same assay, conditions: Hela cells, Axl antibody cross-linking stimulation, phospho-Akt chemiluminescence normalized to cell number; compounds of formula (Ia), Table 1

| Structure (SMILES) | IC50 |
| --- | --- |
| CON=C1CCCc2ncc(Nc3nc(N)n(-c4cc5c(nn4)-c4ccccc4CCC5)n3)cc2CC1 (racemic) [Compound 8, 1-(6,7-dihydro-5H-benzo[6,7]cyclohepta[1,2-c]pyridazin-3-yl)-N^3-(7-(methoxyimino)-5,6,7,8,9,10-hexahydrocycloocta[b]pyridin-3-yl)-1H-1,2,4-triazole-3,5-diamine] | 1000 to 10000 nM |
| Nc1nc(Nc2ccc3c(c2)CCC(=O)NCC3)nn1-c1cc2c(nn1)-c1ccccc1CCC2 [Compound 1, 1-(6,7-dihydro-5H-benzo[6,7]cyclohepta[1,2-c]pyridazin-3-yl)-N^3-(4(1H)-oxo-2,3,5,6-tetrahydrobenzo[d]azocin-8-yl)-1H-1,2,4-triazole-3,5-diamine] | < 1000 nM |
| Nc1nc(Nc2ccc3c(c2)CCCN(C2CCCC2)CC3)nn1-c1cc2c(nn1)-c1ccccc1CCC2 [Compound 2, 1-(6,7-dihydro-5H-benzo[6,7]cyclohepta[1,2-c]pyridazin-3-yl)-N^3-(3-cyclopentyl-1,2,3,4,5,6-hexahydrobenzo[d]azocin-8-yl)-1H-1,2,4-triazole-3,5-diamine] | 1000 to 10000 nM |
| Nc1nc(Nc2ccc3c(c2)CCN(C2CCCC2)CCC3)nn1-c1cc2c(nn1)-c1ccccc1CCC2 [Compound 3, 1-(6,7-dihydro-5H-benzo[6,7]cyclohepta[1,2-c]pyridazin-3-yl)-N^3-(3-cyclopentyl-1,2,3,4,5,6-hexahydrobenzo[d]azocin-9-yl)-1H-1,2,4-triazole-3,5-diamine] | < 1000 nM |
| Nc1nc(Nc2ccc3c(c2)CC2CCC(C3)C2N2CCCC2)nn1-c1cc2c(nn1)-c1ccccc1CCC2 (centres unmarked) [Compound 4, 1-(6,7-dihydro-5H-benzo[6,7]cyclohepta[1,2-c]pyridazin-3-yl)-N^3-(7-pyrrolidin-1-yl-6,8-ethano-6,7,8,9-tetrahydro-5H-benzo[7]annulene-3-yl)-1H-1,2,4-triazole-3,5-diamine] | < 1000 nM |
| Nc1nc(Nc2ccc3c(c2)CC(N2CCCC2)CCCC3)nn1-c1cc2c(nn1)-c1ccccc1CCC2 (centres unmarked) [Compound 5, 1-(6,7-dihydro-5H-benzo[6,7]cyclohepta[1,2-c]pyridazin-3-yl)-N^3-(6-pyrrolidin-1-yl-5,6,7,8,9,10-hexahydrobenzo[8]annulene-3-yl)-1H-1,2,4-triazole-3,5-diamine] | 1000 to 10000 nM |
| Nc1nc(Nc2cnc3c(c2)CCC(=O)CCC3)nn1-c1cc2c(nn1)-c1ccccc1CCC2 [Compound 6, 1-(6,7-dihydro-5H-benzo[6,7]cyclohepta[1,2-c]pyridazin-3-yl)-N^3-(7-oxo-5,6,8,9,10-pentahydrocycloocta[b]pyridin-3-yl)-1H-1,2,4-triazole-3,5-diamine] | < 1000 nM |
| Nc1nc(Nc2cnc3c(c2)CCC(N2CCCC2)CCC3)nn1-c1cc2c(nn1)-c1ccccc1CCC2 (centres unmarked) [Compound 7, 1-(6,7-dihydro-5H-benzo[6,7]cyclohepta[1,2-c]pyridazin-3-yl)-N^3-(7-(pyrrolidin-1-yl)-5,6,7,8,9,10-hexahydrocycloocta[b]pyridin-3-yl)-1H-1,2,4-triazole-3,5-diamine] | < 1000 nM |
| Nc1nc(Nc2cnc3c(c2)CCC(O)CCC3)nn1-c1cc2c(nn1)-c1ccccc1CCC2 (centres unmarked) [Compound 9, 1-(6,7-dihydro-5H-benzo[6,7]cyclohepta[1,2-c]pyridazin-3-yl)-N^3-(7-hydroxy-5,6,7,8,9,10-hexahydrocycloocta[b]pyridin-3-yl)-1H-1,2,4-triazole-3,5-diamine] | 1000 to 10000 nM |
| Nc1nc(Nc2cnc3c(c2)CCC(=O)CCC3)nn1-c1cc(-c2ccncc2)c2c(n1)C1CCN2CC1 [Compound 10, 1-(1,4-ethano-8-pyridin-4-yl-1,2,3,4-tetrahydro-1,5-naphthyridin-6-yl)-N^3-(7-oxo-5,6,7,8,9,10-hexahydrocycloocta[b]pyridin-3-yl)-1H-1,2,4-triazole-3,5-diamine] | < 1000 nM |
| Nc1nc(Nc2ccc3c(c2)C(=O)NCCCC3)nn1-c1cc2c(nn1)-c1ccccc1CCC2 [Compound 11, 1-(6,7-dihydro-5H-benzo[6,7]cyclohepta[1,2-c]pyridazin-3-yl)-N^3-(1(2H)-oxo-3,4,5,6-tetrahydrobenzo[c]azocin-9-yl)-1H-1,2,4-triazole-3,5-diamine] | 1000 to 10000 nM |
| Nc1nc(Nc2ccc3c(c2)CNCCCC3)nn1-c1cc2c(nn1)-c1ccccc1CCC2 [Compound 13, 1-(6,7-dihydro-5H-benzo[6,7]cyclohepta[1,2-c]pyridazin-3-yl)-N^3-(1,2,3,4,5,6-hexahydrobenzo[c]azocin-9-yl)-1H-1,2,4-triazole-3,5-diamine] | 1000 to 10000 nM |
| Nc1nc(Nc2ccc3c(c2)CCC2(CC3)OCCO2)nn1-c1ncnc2c1CCCCCC2 [Compound 14, 1-(5,6,7,8,9,10-hexahydrocycloocta[d]pyrimidin-4-yl)-N^3-(5,6,8,9-tetrahydrospiro[benzo[7]annulene-7,2′-[1,3]dioxolane]-3-yl)-1H-1,2,4-triazole-3,5-diamine] | 1000 to 10000 nM |
